Experimental data reported in US10975082B2, “Inhibitor of FLT3 kinase and use thereof” (PRECEDO PHARMACEUTICALS CO., LTD, priority 2016, dated 2021).

What was measured:
[1] = tested on: MV-4-11; experiment: Cancer cell proliferation, Cell Titer-Glo, GI50; assay type: cell-based; conditions: Homo sapiens, MV4-11; MV-4-11, 72 hours
Procedure: (§1) Compounds of the invention were evaluated for their inhibitory effects on proliferation of cancer cells as well as the selectivity thereof by testing their effects on growth of cancer cells (Table 2).
(§2) In this example the following cells were selected: human acute myeloid leukemia cells MV-4-11 (expressing FLT3[ITD] mutant gene), human acute myeloid leukemia cells MOLM-13 (expressing FLT3[ITD] mutant gene and wild-type FLT3 gene), human acute myeloid leukemia cells MOLM-14 (expressing FLT3[ITD] mutant gene and wild-type FLT3 gene), human acute myeloid leukemia cells OCI-AML3 (expressing FLT3[A680V] mutant gene), human acute myeloid leukemia cells U937 (expressing wild-type FLT3 gene), and mouse pro-B cells BaF3, and the above cells were purchased from ATCC.
(§3) Then the number of viable cells was determined by quantification of ATP in living cells using Cell Titer-Glo® (Promega, the USA) Luminescent Cell Viability Assay kit and thereby GI50 was calculated.

[2] = tested on: U937; experiment: Cancer cell proliferation, Cell Titer-Glo, GI50; assay type: cell-based; conditions: Homo sapiens, U-937; U937, 72 hours
Procedure: as §1, §2, §3

[3] = tested on: MOLM-14; experiment: Cancer cell proliferation, Cell Titer-Glo, GI50; assay type: cell-based; conditions: Homo sapiens; MOLM-14, 72 hours
Procedure: as §1, §2, §3

[4] = tested on: BaF3-TEL-BMX; experiment: Cell proliferation, Cell Titer-Glo, GI50; assay type: cell-based; conditions: Mus musculus, 72 hours
Procedure: as §1
(§4) Mouse BaF3-FLT3[ITD] (stably expressing FLT3[ITD] mutant activated kinase), mouse tel-BaF3-FLT3-D835Y (stably expressing FLT3[D835Y]mutant activated kinase), mouse tel-BaF3-BMX (stably expressing BMX kinase), mouse tel-FLT3-BaF3 (stably expressing FLT3 kinase), mouse BaF3-FLT3-ITD-D835Y (stably expressing FLT3[ITD+D835Y]mutant activated kinase), mouse BaF3-FLT3-ITD-F691L (stably expressing FLT3[ITD+F691L]mutant activated kinase), mouse tel-cKIT-BaF3 (stably expressing cKIT kinase), mouse BaF3-tel-cKit-N882K (stably expressing cKIT-N882K mutant activated kinase), mouse BaF3-tel-cKit-D816V (stably expressing cKIT-D816V mutant activated kinase), mouse BaF3-tel-cKit-T670I (stably expressing cKIT-T670I mutant activated kinase), mouse TPR-MET-BaF3 (stably expressing MET kinase), mouse tel-BaF3-EGFR (stably expressing EGFR kinase), mouse BaF3-FL-EGFR-L858R (stably expressing EGFR[L858R]mutant activated kinase), mouse tel-BaF3-BLK (stably expressing BLK kinase), mouse tel-JAK1-BaF3 (stably expressing JAK1 kinase) and the like were also used (see Table 2 for details). The above cell lines were all constructed by our laboratory according to the following method: the kinase region sequences of human FLT3/ITD, FLT3 D835Y, BMX, FLT3, FLT3[ITD+D835Y], FLT3[ITD+F691L], cKIT, cKIT [N882K], cKIT [D816V], cKIT [T670I], MET, EGFR, EGFR [L858R], BLK, JAK1, FLT3[K663Q], FLT3[D835V], FLT3[D835H], PDGFRa, PEGFRb, VEGFR2, JAK2, JAK3, ABL were amplified by PCR, and inserted into MSCV-Puro vectors with N-terminal TEL or TPR fragments (purchased from Clontech), respectively. The vectors were stably transfected into mouse BaF3 cells (purchased from ATCC) by means of retrovirus, and the growth factor IL-3 were removed, eventually obtaining cell lines that are transferred protein (FLT3/ITD, FLT3 D835Y, BMX, FLT3, FLT3[ITD D835Y], FLT3[ITD+F691L], cKIT, cKIT [N882K], cKIT [D816V], cKIT [T670I], MET, EGFR, EGFR [L858R], BLK, JAK1, FLT3[K663Q], FLT3[D835V], FLT3[D835H], PDGFRa, PEGFRb, VEGFR2, JAK2, JAK3, ABL)-dependent.
as §3

[5] = tested on: BaF3-TEL-FLT3; experiment: Cell proliferation, Cell Titer-Glo, GI50; assay type: cell-based; conditions: Mus musculus; BaF3-TEL-FLT3, 72 hours
Procedure: as §1, §4, §3

[6] = tested on: BaF3-TEL-cKit [N882K]; experiment: Cell proliferation, Cell Titer-Glo, GI50; assay type: cell-based; conditions: Mus musculus, 72 hours
Procedure: as §1, §4, §3

[7] = tested on: BaF3-TEL-FLT3 [K663Q]; experiment: Cell proliferation, Cell Titer-Glo, GI50; assay type: cell-based; conditions: Mus musculus, 72 hours
Procedure: as §1, §4, §3

[8] = tested on: BaF3-TEL-PDGFRa; experiment: Cell proliferation, Cell Titer-Glo, GI50; assay type: cell-based; conditions: Mus musculus, 72 hours
Procedure: as §1, §4, §3

[9] = tested on: BaF3-TEL-PEGFRb; experiment: Cell proliferation, Cell Titer-Glo, GI50; assay type: cell-based; conditions: Mus musculus, 72 hours
Procedure: as §1, §4, §3

[10] = tested on: BaF3-TEL-cKit [D816V]; experiment: Cell proliferation, Cell Titer-Glo, GI50; assay type: cell-based; conditions: Mus musculus, 72 hours
Procedure: as §1, §4, §3

[11] = tested on: BaF3-FLT3 [ITD + D835Y]; experiment: Cell proliferation, Cell Titer-Glo, GI50; assay type: cell-based; conditions: Mus musculus, Ba/F3 FLT3-ITD, 72 hours
Procedure: as §1, §4, §3

[12] = tested on: BaF3-TEL-FLT3 [D835H]; experiment: Cell proliferation, Cell Titer-Glo, GI50; assay type: cell-based; conditions: Mus musculus, 72 hours
Procedure: as §1, §4, §3

[13] = tested on: BaF3-TEL-FLT3 [D835V]; experiment: Cell proliferation, Cell Titer-Glo, GI50; assay type: cell-based; conditions: Mus musculus, 72 hours
Procedure: as §1, §4, §3

[14] = tested on: BaF3-FLT3 [ITD]; experiment: Cell proliferation, Cell Titer-Glo, GI50; assay type: cell-based; conditions: Mus musculus, Ba/F3 FLT3-ITD, 72 hours
Procedure: as §1, §4, §3

[15] = tested on: BaF3-FLT3 [ITD + F691L]; experiment: Cell proliferation, Cell Titer-Glo, GI50; assay type: cell-based; conditions: Mus musculus, Ba/F3 FLT3-ITD, 72 hours
Procedure: as §1, §4, §3

[16] = tested on: BaF3-TEL-FLT3 [D835Y]; experiment: Cell proliferation, Cell Titer-Glo, GI50; assay type: cell-based; conditions: Mus musculus, 72 hours
Procedure: as §1, §4, §3

[17] = tested on: BaF3-TEL-cKIT; experiment: Cell proliferation, Cell Titer-Glo, GI50; assay type: cell-based; conditions: Mus musculus, 72 hours
Procedure: as §1, §4, §3

[18] = tested on: BaF3-TEL-cKit [T670I]; experiment: Cell proliferation, Cell Titer-Glo, GI50; assay type: cell-based; conditions: Mus musculus, 72 hours
Procedure: as §1, §4, §3

[19] = tested on: BaF3; experiment: Cell proliferation, Cell Titer-Glo, GI50; assay type: cell-based; conditions: Mus musculus; BaF3, 72 hours
Procedure: as §1, §2, §3

[20] = tested on: PARP and Caspase 3; experiment: Cell apoptosis, Western Blot of PARP and Caspase 3 cleavage
Text: Western Blot was used to detect the effects of different concentrations of compounds on protein cleavage of the DNA repairase poly(ADP-ribose) polymerase (PARP) and Caspase (cysteinyl aspartate-specific proteinase) 3, wherein glyceraldehyde-3-phosphate dehydrogenase (GAPDH) was used as the internal standard protein.

[21] = tested on: MOLM-14 cells; experiment: Nude mouse model harboring subcutaneous tumor; assay type: in vivo; conditions: 28 days
Procedure: The first day of administration was recorded as day 0, followed by continuous administration for 28 days (FIG. 4).

[22] = tested on: MOLM-13, MOLM-14 and MV-4-11 cell lines; experiment: Cell cycle distribution by flow cytometry (PI); assay type: cell-based, human; conditions: MOLM-13, MOLM-14 and MV-4-11, 12 or 24 hours; Compound 1 0.01-0.1 μM, AC220 0.1 μM
[23] = tested on: STAT5; experiment: Signaling pathways of FLT3 in cells: STAT5 phosphorylation; assay type: cell-based, human; conditions: MV-4-11, MOLM-13 and MOLM-14 cells, 4 hours; Compound 1 0.001-0.3 μM, AC220 0.1 μM

GI50 [1] [nM]	GI50 [2] [nM]	GI50 [3] [nM]	GI50 [4] [nM]	GI50 [5] [nM]	GI50 [6] [nM]	GI50 [7] [nM]	GI50 [8] [nM]	GI50 [9] [nM]	GI50 [10] [nM]	GI50 [11] [nM]	GI50 [12] [nM]	GI50 [13] [nM]	GI50 [14] [nM]	GI50 [15] [nM]	GI50 [16] [nM]	GI50 [17] [nM]	GI50 [18] [nM]	GI50 [19] [nM]	Compound	other results
< 0.3	8500	< 0.3	2000	1	15	3800	2	12	2200	100	4	17	< 0.3	39	20	40	13	6500	CC(C)(C)c1cc(NC(=O)Nc2ccc(-n3nc(-c4ccc(OCCN5CCN(S(C)(=O)=O)CC5)cc4)c4c(N)ncnc43)cc2)no1 [Compound 22, 1-(4-(4-amino-3-(4-(2-(4-(methanesulfonyl)piperazin-1-yl)ethoxy)phenyl)-1H-pyrazolo[3,4-d]pyrimidin-1-yl)phenyl)-3-(5-(tert-butyl)isoxazol-3-yl)urea]	–
< 0.3	2300	< 0.3	5300	1	10	3600	2	10	1800	59	< 0.3	4	< 0.3	120	9	31	4	~10000	CC(=O)N1CCN(Cc2ccc(-c3nn(-c4ccc(NC(=O)Nc5cc(C(C)(C)C)on5)cc4)c4ncnc(N)c34)cc2)CC1 [Compound 21, 1-(4-(3-(4-((4-acetylpiperazin-1-yl)methyl)phenyl)-4amino-1H-pyrazolo[3,4-d]pyrimidin-1-yl)phenyl)-3-(5-(tert-butyl)isoxazol-3-yl)urea]	–
–	–	–	–	–	–	–	–	–	–	–	–	–	–	–	–	–	–	–	CC(C)(C)c1cc(NC(=O)Nc2ccc(-n3nc(-c4ccc(OCCN5CCOCC5)cc4)c4c(N)ncnc43)cc2)no1 [Compound 1, 1-(4-(4-amino-3-(4-(2-morpholinoethoxy)phenyl)-1H-pyrazolo[3,4-d]pyrimidin-1-yl)phenyl)-3-(5-(tert-butyl)isoxazol-3-yl)urea]	cleavage of Caspase 3 ([20]; MOLM-13, 0.003 μM, 12 hours): significant cleavage; cleavage of the DNA repairase poly(ADP-ribose) polymerase (PARP) ([20]; MOLM-13, 0.003 μM, 12 hours): significant cleavage; cleavage of the DNA repairase poly(ADP-ribose) polymerase (PARP) ([20]; MV-4-11, 24 hours): even more significant; mice body weight ([21]; 3.75 mg/kg daily oral gavage): no significant decrease; mice body weight ([21]; 15 mg/kg daily oral gavage): did not decrease; mice body weight ([21]; […] daily oral gavage): did not decrease; cell cycle distribution [22]: arrested the cell cycle at phase G0-G1; phosphorylation of STAT5 [23]: significant inhibition
